These results are taken from PubChem BioAssay AID306 (DTP/NCI, 2004).

The structures appear in SMILES notation. “And” between values parts separate entries of the source, which are not always exact repeats. Equal entries are not always repeated. Toxic doses and inconclusive results are not listed.

The subject of this test is BDF1 mice, L1210 Methyl-GAG-resistant leukemia, survival T/C. Briefly: NCI In Vivo Anticancer Drug Screen. Data for tumor model L1210 Leukemia resistant to Methyl-GAG; NSC 32946 (subcutaneous) in B6D2F1 (BDF1) mice. Conditions: endpoint: mean survival time, higher = longer survival. On the procedure: The antitumor activity of compounds was measured in mice bearing transplantable tumors. Survival or tumor size were measured and the results are expressed as the measurement made in the treated group (T) divided by the measurement made in the vehicle treated control group (C). The tumor model used in this assay is L1210 Leukemia resistant to Methyl-GAG; NSC 32946 (subcutaneous) in B6D2F1 (BDF1) mice

Setting [1] is: dose: 2.0 mg/kg/injection, schedule: Q01DX Z (ip), vehicle: carboxymethylcellulose (CMC).
Where [2] appears, read: dose: 4.0 mg/kg/injection, schedule: Q01DX Z (ip), vehicle: carboxymethylcellulose (CMC).
Setting [3] is: dose: 0.06 mg/kg/injection, schedule: Q01DX Z (ip), vehicle: saline.
Where [4] appears, read: dose: 0.12 mg/kg/injection, schedule: Q01DX Z (ip), vehicle: saline.
Where [5] appears, read: dose: 0.25 mg/kg/injection, schedule: Q01DX Z (ip), vehicle: saline.
Setting [6] is: dose: 0.5 mg/kg/injection, schedule: Q01DX Z (ip), vehicle: saline.
Where [7] appears, read: dose: 1.6 mg/kg/injection, schedule: Q01DX Z (ip), vehicle: carboxymethylcellulose (CMC).
Setting [8] is: dose: 3.1 mg/kg/injection, schedule: Q01DX Z (ip), vehicle: carboxymethylcellulose (CMC).
Setting [9] is: dose: 6.3 mg/kg/injection, schedule: Q01DX Z (ip), vehicle: carboxymethylcellulose (CMC).
Where [10] appears, read: dose: 12.5 mg/kg/injection, schedule: Q01DX Z (ip), vehicle: carboxymethylcellulose (CMC).
Setting [11] is: dose: 25.0 mg/kg/injection, schedule: Q01DX Z (ip), vehicle: carboxymethylcellulose (CMC).
[12] abbreviates: dose: 62.5 mg/kg/injection, schedule: Q01DX Z (ip), vehicle: carboxymethylcellulose (CMC).
Setting [13] is: dose: 125.0 mg/kg/injection, schedule: Q01DX Z (ip), vehicle: carboxymethylcellulose (CMC).
Setting [14] is: dose: 31.0 mg/kg/injection, schedule: Q01DX Z (ip), vehicle: carboxymethylcellulose (CMC).
[15] abbreviates: dose: 8.0 mg/kg/injection, schedule: Q01DX Z (ip), vehicle: carboxymethylcellulose (CMC).
Setting [16] is: dose: 250.0 mg/kg/injection, schedule: Q01DX Z (ip), vehicle: carboxymethylcellulose (CMC).
Where [17] appears, read: dose: 500.0 mg/kg/injection, schedule: Q01DX Z (ip), vehicle: carboxymethylcellulose (CMC).
The mark [18] stands for this setting: dose: 50.0 mg/kg/injection, schedule: Q01DX Z (ip), vehicle: carboxymethylcellulose (CMC).
[19] abbreviates: dose: 100.0 mg/kg/injection, schedule: Q01DX Z (ip), vehicle: carboxymethylcellulose (CMC).

On to `Nc1nc(=S)c2[nH]cnc2[nH]1`, for which the T/C (dose: 0.12 mg/kg/injection, schedule: Q01DX Z (ip), vehicle: carboxymethylcellulose (CMC)) is 98 % of control; the T/C (dose: 0.25 mg/kg/injection, schedule: Q01DX Z (ip), vehicle: carboxymethylcellulose (CMC)) was 93 % of control; the T/C (dose: 0.5 mg/kg/injection, schedule: Q01DX Z (ip), vehicle: carboxymethylcellulose (CMC)) is 96 % of control; the T/C under setting [1] was 164 % of control and 168 % of control; the T/C under setting [2] is 118 % of control.
As for `CSCS(=O)C[C@H](CO)NC(=O)/C=C/c1c(C)[nH]c(=O)[nH]c1=O` (stereo partly specified), the T/C is, setting by setting: under setting [3], 97 % of control; under setting [4], 97 % of control; under setting [5], 106 % of control and 113 % of control; under setting [6], 112 % of control; (dose: 1.0 mg/kg/injection, schedule: Q01DX Z (ip), vehicle: saline) 96 % of control.
Turning to `Clc1ccc(C(c2ccccc2Cl)C(Cl)Cl)cc1` (stereo unspecified), the T/C reads like this: (dose: 12.5 mg/kg/injection, schedule: Q01DX Z (sc), vehicle: steriod suspending solution) 105 % of control; (dose: 25.0 mg/kg/injection, schedule: Q01DX Z (sc), vehicle: steriod suspending solution) 102 % of control; (dose: 50.0 mg/kg/injection, schedule: Q01DX Z (sc), vehicle: steriod suspending solution) 98 % of control; (dose: 100.0 mg/kg/injection, schedule: Q01DX Z (sc), vehicle: steriod suspending solution) 100 % of control; (dose: 200.0 mg/kg/injection, schedule: Q01DX Z (sc), vehicle: steriod suspending solution) 105 % of control; (dose: 400.0 mg/kg/injection, schedule: Q01DX Z (sc), vehicle: steriod suspending solution) 101 % of control. In addition, the T/C (dose: 800.0 mg/kg/injection, schedule: Q01DX Z (sc), vehicle: steriod suspending solution) was 109 % of control.
Take `C[n+]1c2ccccc2nc2c(N)cc(N)cc21`: the T/C reads like this: under setting [7], 101 % of control; under setting [8], 102 % of control; under setting [9], 98 % of control and 104 % of control; under setting [10], 104 % of control; under setting [11], 104 % of control.
On to `Clc1ncnc2nc[nH]c12`, for which the T/C (dose: 31.25 mg/kg/injection, schedule: Q01DX Z (ip), vehicle: carboxymethylcellulose (CMC)) was 100 % of control; the T/C under setting [12] was 90 % of control; the T/C under setting [13] was 121 % of control.
For the compound `c1ccc(CNc2ncnc3[nH]ncc23)cc1`, the T/C by setting is: (dose: 0.97 mg/kg/injection, schedule: Q01DX Z (ip), vehicle: carboxymethylcellulose (CMC)) 107 % of control; (dose: 1.95 mg/kg/injection, schedule: Q01DX Z (ip), vehicle: carboxymethylcellulose (CMC)) 102 % of control; (dose: 3.9 mg/kg/injection, schedule: Q01DX Z (ip), vehicle: carboxymethylcellulose (CMC)) 108 % of control and 121 % of control; (dose: 7.8 mg/kg/injection, schedule: Q01DX Z (ip), vehicle: carboxymethylcellulose (CMC)) 100 % of control and 103 % of control; (dose: 15.5 mg/kg/injection, schedule: Q01DX Z (ip), vehicle: carboxymethylcellulose (CMC)) 107 % of control; under setting [14], 110 % of control.
As for `Cn1cnc([N+](=O)[O-])c1Sc1nc(N)nc2nc[nH]c12`, the T/C is 98 % of control (dose: 1.0 mg/kg/injection, schedule: Q01DX Z (ip), vehicle: carboxymethylcellulose (CMC)); 106 % of control under setting [1]; 162 % of control under setting [2]; 88 % of control under setting [15].
With `OCC1OC(n2cnc3c(Cl)ncnc32)C(O)C1O` (stereo unspecified), the T/C is 96 % of control under setting [12]; 94 % of control under setting [13]; 99 % of control under setting [16]; 88 % of control and 102 % of control under setting [17]; 91 % of control (dose: 1000.0 mg/kg/injection, schedule: Q01DX Z (ip), vehicle: carboxymethylcellulose (CMC)).
Take `CCCSc1ncnc2nc[nH]c12`: the T/C under setting [9] was 107 % of control; the T/C under setting [10] was 110 % of control; the T/C under setting [11] is 110 % of control and 118 % of control; the T/C under setting [18] was 117 % of control and 123 % of control; the T/C under setting [19] was 110 % of control.
In the case of `Nc1ncnc2[nH]ncc12`, the T/C was 102 % of control (dose: 0.8 mg/kg/injection, schedule: Q01DX Z (ip), vehicle: carboxymethylcellulose (CMC)); 100 % of control under setting [7]; 104 % of control under setting [8]; 106 % of control (dose: 6.25 mg/kg/injection, schedule: Q01DX Z (ip), vehicle: carboxymethylcellulose (CMC)); 102 % of control under setting [10]; 90 % of control under setting [11]. Moreover, the T/C under setting [18] was 93 % of control and 96 % of control.
Take `CN(C)c1nc(N(C)C)nc(N(C)C)n1`: the T/C runs as follows: under setting [12], 100 % of control; under setting [13], 95 % of control; under setting [16], 100 % of control; under setting [17], 100 % of control; (dose: 1000.0 mg/kg/injection, schedule: Q01DX Z (ip), vehicle: methylcellulose (MC)) 98 % of control.
Take `COC12C(COC(N)=O)C3=C(C(=O)C(C)=C(N)C3=O)N1CC1C2N1C` (stereo unspecified): the T/C is, setting by setting: (dose: 2.5 mg/kg/injection, schedule: Q01DX Z (ip), vehicle: carboxymethylcellulose (CMC)) 96 % of control; (dose: 5.0 mg/kg/injection, schedule: Q01DX Z (ip), vehicle: carboxymethylcellulose (CMC)) 103 % of control; (dose: 10.0 mg/kg/injection, schedule: Q01DX Z (ip), vehicle: carboxymethylcellulose (CMC)) 122 % of control; (dose: 20.0 mg/kg/injection, schedule: Q01DX Z (ip), vehicle: carboxymethylcellulose (CMC)) 88 % of control.
Take `CN(N=O)C(N)=O`: the T/C is 97 % of control (dose: 3.2 mg/kg/injection, schedule: Q01DX Z (ip), vehicle: saline); 113 % of control (dose: 6.3 mg/kg/injection, schedule: Q01DX Z (ip), vehicle: saline); 115 % of control (dose: 12.5 mg/kg/injection, schedule: Q01DX Z (ip), vehicle: saline); 178 % of control (dose: 25.0 mg/kg/injection, schedule: Q01DX Z (ip), vehicle: saline).
Regarding `C[C@]12CC[C@H](OC3OC(CO)C(O)C(O)C3O)C[C@H]1CC[C@@H]1[C@@H]2CC[C@]2(C)[C@@H](C3=CCOC3=O)CC[C@]12O` (stereo partly specified), the T/C was 94 % of control under setting [3]; 92 % of control under setting [4]; 91 % of control under setting [5]; 91 % of control under setting [6]; 90 % of control (dose: 4.0 mg/kg/injection, schedule: Q01DX Z (ip), vehicle: saline); 97 % of control (dose: 16.0 micrograms/kg/injection, schedule: Q01DX Z (ip), vehicle: saline). For the same compound, the T/C is 102 % of control (dose: 32.0 micrograms/kg/injection, schedule: Q01DX Z (ip), vehicle: saline); 107 % of control (dose: 1000.0 micrograms/kg/injection, schedule: Q01DX Z (ip), vehicle: saline); 105 % of control (dose: 2000.0 micrograms/kg/injection, schedule: Q01DX Z (ip), vehicle: saline).
On to `CCCCNc1ncnc2c1cnn2C`, for which the T/C under setting [2] was 106 % of control; the T/C under setting [15] is 106 % of control; the T/C (dose: 8.8 mg/kg/injection, schedule: Q01DX Z (ip), vehicle: carboxymethylcellulose (CMC)) was 102 % of control; the T/C (dose: 15.6 mg/kg/injection, schedule: Q01DX Z (ip), vehicle: carboxymethylcellulose (CMC)) was 110 % of control; the T/C under setting [14] was 112 % of control; the T/C (dose: 31.2 mg/kg/injection, schedule: Q01DX Z (ip), vehicle: carboxymethylcellulose (CMC)) was 107 % of control. Moreover, the T/C reads like this: under setting [12], 100 % of control; under setting [13], 98 % of control.
As for `Cn1cnc([N+](=O)[O-])c1Sc1ncnc2nc[nH]c12`, the T/C runs as follows: under setting [10], 105 % of control; under setting [11], 103 % of control; under setting [18], 124 % of control; under setting [19], 88 % of control.
